Results published in patent US12649750B2, “Macrocyclic compounds, compositions, and methods of using thereof” (Sionna Therapeutics Inc., priority 2022, dated 2026).

Target: T1, NBD1 (Homo sapiens, UniProt P13569)
T1 construct: Purified recombinant NBD1 was produced using previously described methods; made in house
Test: Aggregation analysis using differential static light scattering (DSLS), thermal stability of NBD1 (ΔTagg)
Format: binding
Details: ΔTagg versus DMSO control, NBD1 0.2 mg/ml
In short: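 Purified recombinant NBD1 at 0.2 mg/ml in Tris buffer pH7.6 with 2 mM ATP, 5 mM MgCl2, 2 mM DTT and 1% glycerol was mixed with DMSO-dissolved compounds under mineral oil. Plates were heated at 1° C. per minute to 70° C., light scattering imaged every 0.5° C.; Tagg from curve inflection, minus DMSO-control mean.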

T1 sequence (P13569 423-646 limits assumed): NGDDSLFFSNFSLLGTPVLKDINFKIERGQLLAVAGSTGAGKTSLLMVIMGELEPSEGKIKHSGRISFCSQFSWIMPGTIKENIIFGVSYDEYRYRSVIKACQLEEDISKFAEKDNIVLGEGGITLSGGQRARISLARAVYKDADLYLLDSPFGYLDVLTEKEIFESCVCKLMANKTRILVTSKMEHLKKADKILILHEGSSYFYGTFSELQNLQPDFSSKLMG

Compound	DSLS 3D (100 μM ΔT)
CC1c2ccnc(c2)-c2nc(nn2C)[C@@](C)(c2cccc(C[C@@H](C)C(=O)O)c2)CCCC(C)(C)CS(=O)(=O)CCc2c1c(F)c(F)c1[nH]ccc21 (single isomer, unassigned) [Compound 317A]	B (a value above 5 °C and less than or equal to 10 °C is marked “B”)
COCC(Cc1cccc([C@@]2(C)CCCC(C)(C)CS(=O)(=O)CCc3c(c(F)c(F)c4[nH]ccc34)[S+]([O-])c3ccnc(c3)-c3nc2nn3C)c1)C(=O)O (single isomer, unassigned) [Compound 374]	B (a value above 5 °C and less than or equal to 10 °C is marked “B”)
C[C@@H](Cc1cccc(C2(C)CCCC(C)(C)CS(=O)(=O)CCc3c(c(F)cc4[nH]ccc34)[S+]([O-])c3ccnc(c3)-c3nc2nn3C)n1)C(=O)O (single isomer, unassigned) [Compound 315C]	A (an ΔTagg value less than or equal to 5 °C is marked “A”)
Cn1nc2nc1-c1cc(ccn1)S(=O)(=O)c1c(F)cc3[nH]ccc3c1CCS(=O)(=O)CC(C)(C)CCC[C@]2(C)c1cccc(C[C@@H](O)CO)c1 [Compound 338, (2R)-3-[3-[(6R)-22-Fluoro-3,6,10,10-tetramethyl-12,12,24,24-tetraoxo-12λ6,24λ6-dithia-3,4,19,28,30-pentazapentacyclo[23.3.1.12,5.015,23.016,20]triaconta-1(29),2(30),4,15,17,20,22,25,27-nonaen-6-yl]phenyl]propane-1,2-diol]	A (an ΔTagg value less than or equal to 5 °C is marked “A”)
C[C@@H](Cc1cccc([C@@]2(C)CCCC(C)(C)CS(=O)(=O)CCc3c(c(F)c(F)c4[nH]ccc34)S(=O)(=O)c3ccc(F)c(c3)-c3nc2nn3C)c1)C(=O)O [Compound 351, (2S)-2-Methyl-3-[3-[(6R)-21,22,28-trifluoro-3,6,10,10-tetramethyl-12,12,24,24-tetraoxo-12λ6,24λ6-dithia-3,4,19,30-tetrazapentacyclo[23.3.1.12,5.015,23.016,20]triaconta-1(29),2(30),4,15,17,20,22,25,27-nonaen-6-yl]phenyl]propanoic Acid]	B (a value above 5 °C and less than or equal to 10 °C is marked “B”)
CNC(=O)[C@@H](C)Cc1cccc([C@@]2(C)CCCC(C)(C)CS(=O)(=O)CC(NC)c3c(c(F)cc4[nH]ccc34)Sc3ccc(F)c(c3)-c3nc2nn3C)c1 (single isomer, unassigned) [Compound 368A]	B (a value above 5 °C and less than or equal to 10 °C is marked “B”)
C[C@@H](Cc1cccc([C@@]2(C)CCCC(C)(C)CS(=O)(=O)CCc3c[nH]c4cc(F)c(cc34)[S+]([O-])c3ccc(F)c(c3)-c3nc2nn3C)c1)C(=O)O (stereo partly shown) [Compound 355]	A (an ΔTagg value less than or equal to 5 °C is marked “A”)
Cn1nc2nc1-c1cc(ccn1)Cc1c(F)cc3[nH]ccc3c1CCS(=O)(=O)CC(C)(C)CCC[C@]2(C)c1cccc(CC2(C(=O)O)CC2)c1 [Compound 313, 1-[[3-[(6R)-22-Fluoro-3,6,10,10-tetramethyl-12,12-dioxo-12λ6-thia-3,4,19,28,30-pentazapentacyclo[23.3.1.12,5.015,23.016,20]triaconta-1(29),2(30),4,15,17,20,22,25,27-nonaen-6-yl]phenyl]methyl]cyclopropanecarboxylic acid]	B (a value above 5 °C and less than or equal to 10 °C is marked “B”)
C[C@@H](Cc1cccc(C2(C)CCCC(C)(C)CS(=O)(=O)CCc3c(c(F)cc4[nH]ccc34)Sc3ccnc(c3)-c3nc2nn3C)n1)C(=O)O (single isomer, unassigned) [Compound 314B]	B (a value above 5 °C and less than or equal to 10 °C is marked “B”)
COC(=O)[C@H](C)Cc1cccc([C@@]2(C)CCCC(C)(C)CS(=O)(=O)CCc3c(c(F)cc4[nH]ccc34)Sc3cc(c(F)cc3O)-c3nc2nn3C)c1 [Compound 376, Methyl (2R)-3-[3-[(6R)-22,28-difluoro-26-hydroxy-3,6,10,10-tetramethyl-12,12-dioxo-12λ6,24-dithia-3,4,19,30-tetrazapentacyclo[23.3.1.12,5.015,23.016,20]triaconta-1(29),2(30),4,15,17,20,22,25,27-nonaen-6-yl]phenyl]-2-methyl-propanoate]	A (an ΔTagg value less than or equal to 5 °C is marked “A”)
Cn1nc2nc1-c1cc(ccc1F)S(=O)(=O)c1c(F)cc3[nH]ccc3c1CCS(=O)(=O)CC(C)(C)CCC[C@]2(C)c1cccc(CC(C)(C)C(=O)O)c1 [Compound 348A, 3-[3-[(6R)-22,28-Difluoro-3,6,10,10-tetramethyl-12,12,24,24-tetraoxo-12λ6,24λ6-dithia-3,4,19,30-tetrazapentacyclo[23.3.1.12,5.015,23.016,20]triaconta-1(29),2(30),4,15,17,20,22,25,27-nonaen-6-yl]phenyl]-2,2-dimethyl-propanoic Acid]	A (an ΔTagg value less than or equal to 5 °C is marked “A”)
O=C(O)CCc1cccc(C2CCCCCCS(=O)(=O)CCc3c(c(F)cc4[nH]ccc34)Oc3ccc(F)c(c3)-c3ncc2[nH]3)c1 (stereo not shown) [Compound 35, 3-[3-(23,29-Difluoro-13,13-dioxo-25-oxa-13λ6-thia-3,20,31-triazapentacyclo[24.3.1.12,5.016,24.017,21]hentriaconta-1(30),2,4,16,18,21,23,26,28-nonaen-6-yl)phenyl]propanoic Acid]	C (a value greater than 10 °C and less than or equal to 25 °C is marked “C”)
CC1c2ccnc(c2)-c2nc(nn2C)[C@@](C)(c2cccc(C[C@H](C)C(=O)O)c2)CCCC(C)(C)CS(=O)(=O)CCc2c1c(F)c(F)c1[nH]ccc21 (single isomer, unassigned) [Compound 316A]	B (a value above 5 °C and less than or equal to 10 °C is marked “B”)
CC(=O)OC[C@@H](Cc1cccc([C@@]2(C)CCCC(C)(C)CS(=O)(=O)CCc3c(c(F)cc4[nH]ccc34)Sc3ccnc(c3)-c3nc2nn3C)c1)OC(C)=O [Compound 336A, [(2R)-2-Acetoxy-3-[3-[(6R)-22-fluoro-3,6,10,10-tetramethyl-12,12-dioxo-12λ6,24-dithia-3,4,19,28,30-pentazapentacyclo[23.3.1.12,5.015,23.016,20]triaconta-1(29),2(30),4,15,17,20,22,25,27-nonaen-6-yl]phenyl]propyl]Acetate]	A (an ΔTagg value less than or equal to 5 °C is marked “A”)
C[C@@H](Cc1cccc([C@@]2(C)CCCC(C)(C)CS(=O)(=O)CC(N)c3c(c(F)cc4[nH]ccc34)Sc3ccc(F)c(c3)-c3nc2nn3C)c1)C(N)=O (single isomer, unassigned) [Compound 370A]	B (a value above 5 °C and less than or equal to 10 °C is marked “B”)
Cn1nc2nc1-c1cc(ccc1F)Oc1c(F)c(F)c3[nH]ccc3c1CCS(=O)(=O)CC(C)(C)CCC[C@]2(C)c1cccc(CC(C)(C)C(=O)O)c1 [Compound 324, 2,2-Dimethyl-3-[3-[(6R)-21,22,28-trifluoro-3,6,10,10-tetramethyl-12,12-dioxo-24-oxa-12λ6-thia-3,4,19,30-tetrazapentacyclo[23.3.1.12,5.015,23.016,20]triaconta-1(29),2(30),4,15,17,20,22,25,27-nonaen-6-yl]phenyl]propanoic Acid]	B (a value above 5 °C and less than or equal to 10 °C is marked “B”)
